According to the supplement of paper PMC8882468:

System: HCI-002 (organoid from a triple-negative breast cancer xenograft)
Assay: CTG-3D luminescence at 96 h relative to day-0 seeding control (ratio to day 0); higher = more growth / less cytotoxicity; PDxO 3D drug screen (set 2), 96 h, CTG-3D normalised to day-0 seeding control.
[1] = 0.00025 µM, days in culture: 127
[2] = 0.00025 µM, days in culture: 155
[3] = 0.00025 µM, days in culture: 168

## Cc1c(CN2CCN(C(=O)[C@H](C)O)CC2)sc2c(N3CCOCC3)nc(-c3cnc(N)nc3)nc12 [apitolisib]
12.5 pM, days in culture: 127
  CTG-3D luminescence at 96 h: 2.45
12.5 pM, days in culture: 155
  CTG-3D luminescence at 96 h: 5.36
12.5 pM, days in culture: 168
  CTG-3D luminescence at 96 h: 3.42
[1]
  CTG-3D luminescence at 96 h: 2.82
[2]
  CTG-3D luminescence at 96 h: 5.25
[3]
  CTG-3D luminescence at 96 h: 3.42
0.005 µM, days in culture: 127
  CTG-3D luminescence at 96 h: 2.96
0.005 µM, days in culture: 155
  CTG-3D luminescence at 96 h: 5.97
0.005 µM, days in culture: 168
  CTG-3D luminescence at 96 h: 4.23
0.1 µM, days in culture: 127
  CTG-3D luminescence at 96 h: 2.58
0.1 µM, days in culture: 155
  CTG-3D luminescence at 96 h: 4.01
0.1 µM, days in culture: 168
  CTG-3D luminescence at 96 h: 2.67
1 µM, days in culture: 127
  CTG-3D luminescence at 96 h: 1.05
1 µM, days in culture: 155
  CTG-3D luminescence at 96 h: 1.36
1 µM, days in culture: 168
  CTG-3D luminescence at 96 h: 1.16
10 µM, days in culture: 127
  CTG-3D luminescence at 96 h: 0.803
10 µM, days in culture: 155
  CTG-3D luminescence at 96 h: 0.808
10 µM, days in culture: 168
  CTG-3D luminescence at 96 h: 0.818
100 µM, days in culture: 127
  CTG-3D luminescence at 96 h: 0.805
100 µM, days in culture: 155
  CTG-3D luminescence at 96 h: 0.848
100 µM, days in culture: 168
  CTG-3D luminescence at 96 h: 0.75
625 fM, days in culture: 127
  CTG-3D luminescence at 96 h: 2.74
625 fM, days in culture: 155
  CTG-3D luminescence at 96 h: 4.72
625 fM, days in culture: 168
  CTG-3D luminescence at 96 h: 3.69

## CS(=O)(=O)CCNCc1ccc(-c2ccc3ncnc(Nc4ccc(OCc5cccc(F)c5)c(Cl)c4)c3c2)o1 [lapatinib]
12.5 pM, days in culture: 127
  CTG-3D luminescence at 96 h: 2.38
12.5 pM, days in culture: 155
  CTG-3D luminescence at 96 h: 5.69
12.5 pM, days in culture: 168
  CTG-3D luminescence at 96 h: 3.63
[1]
  CTG-3D luminescence at 96 h: 2.9
[2]
  CTG-3D luminescence at 96 h: 4.91
[3]
  CTG-3D luminescence at 96 h: 3.77
0.005 µM, days in culture: 127
  CTG-3D luminescence at 96 h: 2.7
0.005 µM, days in culture: 155
  CTG-3D luminescence at 96 h: 5.49
0.005 µM, days in culture: 168
  CTG-3D luminescence at 96 h: 3.93
0.1 µM, days in culture: 127
  CTG-3D luminescence at 96 h: 3.41
0.1 µM, days in culture: 155
  CTG-3D luminescence at 96 h: 7.04
0.1 µM, days in culture: 168
  CTG-3D luminescence at 96 h: 3.54
1 µM, days in culture: 127
  CTG-3D luminescence at 96 h: 2.39
1 µM, days in culture: 155
  CTG-3D luminescence at 96 h: 4.12
1 µM, days in culture: 168
  CTG-3D luminescence at 96 h: 3.53
10 µM, days in culture: 127
  CTG-3D luminescence at 96 h: 1.07
10 µM, days in culture: 155
  CTG-3D luminescence at 96 h: 0.801
10 µM, days in culture: 168
  CTG-3D luminescence at 96 h: 1.01
100 µM, days in culture: 127
  CTG-3D luminescence at 96 h: 0.00596
100 µM, days in culture: 155
  CTG-3D luminescence at 96 h: -0.00284
100 µM, days in culture: 168
  CTG-3D luminescence at 96 h: -0.0013
625 fM, days in culture: 127
  CTG-3D luminescence at 96 h: 2.75
625 fM, days in culture: 155
  CTG-3D luminescence at 96 h: 4.59
625 fM, days in culture: 168
  CTG-3D luminescence at 96 h: 3.8

## Nc1cc(C(F)(F)F)c(-c2cc(N3CCOCC3)nc(N3CCOCC3)n2)cn1 [buparlisib]
12.5 pM, days in culture: 127
  CTG-3D luminescence at 96 h: 2.59
12.5 pM, days in culture: 155
  CTG-3D luminescence at 96 h: 5.8
12.5 pM, days in culture: 168
  CTG-3D luminescence at 96 h: 3.25
[1]
  CTG-3D luminescence at 96 h: 2.87
[2]
  CTG-3D luminescence at 96 h: 5.75
[3]
  CTG-3D luminescence at 96 h: 3.53
0.005 µM, days in culture: 127
  CTG-3D luminescence at 96 h: 2.94
0.005 µM, days in culture: 155
  CTG-3D luminescence at 96 h: 6.05
0.005 µM, days in culture: 168
  CTG-3D luminescence at 96 h: 3.92
0.1 µM, days in culture: 127
  CTG-3D luminescence at 96 h: 3.16
0.1 µM, days in culture: 155
  CTG-3D luminescence at 96 h: 5.13
0.1 µM, days in culture: 168
  CTG-3D luminescence at 96 h: 2.96
1 µM, days in culture: 127
  CTG-3D luminescence at 96 h: 2.14
1 µM, days in culture: 155
  CTG-3D luminescence at 96 h: 3.11
1 µM, days in culture: 168
  CTG-3D luminescence at 96 h: 2.25
10 µM, days in culture: 127
  CTG-3D luminescence at 96 h: 0.496
10 µM, days in culture: 155
  CTG-3D luminescence at 96 h: 0.466
10 µM, days in culture: 168
  CTG-3D luminescence at 96 h: 0.309
100 µM, days in culture: 127
  CTG-3D luminescence at 96 h: 0.461
100 µM, days in culture: 155
  CTG-3D luminescence at 96 h: 0.411
100 µM, days in culture: 168
  CTG-3D luminescence at 96 h: 0.241
625 fM, days in culture: 127
  CTG-3D luminescence at 96 h: 2.98
625 fM, days in culture: 155
  CTG-3D luminescence at 96 h: 4.41
625 fM, days in culture: 168
  CTG-3D luminescence at 96 h: 4.04

## CC(=O)O[C@@]12CO[C@@H]1C[C@H](O)[C@@]1(C)C(=O)[C@H](O)C3=C(C)[C@@H](OC(=O)[C@H](O)[C@@H](NC(=O)OC(C)(C)C)c4ccccc4)C[C@@](O)([C@@H](OC(=O)c4ccccc4)[C@H]21)C3(C)C [docetaxel]
12.5 pM, days in culture: 127
  CTG-3D luminescence at 96 h: 0.447
12.5 pM, days in culture: 155
  CTG-3D luminescence at 96 h: 1.9
12.5 pM, days in culture: 168
  CTG-3D luminescence at 96 h: 3.45
[1]
  CTG-3D luminescence at 96 h: 0.957
[2]
  CTG-3D luminescence at 96 h: 0.578
[3]
  CTG-3D luminescence at 96 h: 3.13
0.005 µM, days in culture: 127
  CTG-3D luminescence at 96 h: 0.452
0.005 µM, days in culture: 155
  CTG-3D luminescence at 96 h: 0.357
0.005 µM, days in culture: 168
  CTG-3D luminescence at 96 h: 0.43
0.1 µM, days in culture: 127
  CTG-3D luminescence at 96 h: 0.428
0.1 µM, days in culture: 155
  CTG-3D luminescence at 96 h: 0.536
0.1 µM, days in culture: 168
  CTG-3D luminescence at 96 h: 0.281
1 µM, days in culture: 127
  CTG-3D luminescence at 96 h: 0.356
1 µM, days in culture: 155
  CTG-3D luminescence at 96 h: 0.394
1 µM, days in culture: 168
  CTG-3D luminescence at 96 h: 0.324
10 µM, days in culture: 127
  CTG-3D luminescence at 96 h: 0.422
10 µM, days in culture: 155
  CTG-3D luminescence at 96 h: 0.397
10 µM, days in culture: 168
  CTG-3D luminescence at 96 h: 0.319
100 µM, days in culture: 127
  CTG-3D luminescence at 96 h: 0.298
100 µM, days in culture: 155
  CTG-3D luminescence at 96 h: 0.378
100 µM, days in culture: 168
  CTG-3D luminescence at 96 h: 0.115
625 fM, days in culture: 127
  CTG-3D luminescence at 96 h: 0.543
625 fM, days in culture: 155
  CTG-3D luminescence at 96 h: 2.27
625 fM, days in culture: 168
  CTG-3D luminescence at 96 h: 4.39

## CO[C@H]1C[C@@H]2CC[C@@H](C)[C@@](O)(O2)C(=O)C(=O)N2CCCC[C@H]2C(=O)O[C@H]([C@H](C)C[C@@H]2CC[C@@H](O)[C@H](OC)C2)CC(=O)[C@H](C)/C=C(\C)[C@@H](O)[C@@H](OC)C(=O)[C@H](C)C[C@H](C)/C=C/C=C/C=C/1C [rapamycin]
12.5 pM, days in culture: 127
  CTG-3D luminescence at 96 h: 1.89
12.5 pM, days in culture: 155
  CTG-3D luminescence at 96 h: 3.33
12.5 pM, days in culture: 168
  CTG-3D luminescence at 96 h: 2.98
[1]
  CTG-3D luminescence at 96 h: 1.99
[2]
  CTG-3D luminescence at 96 h: 3.32
[3]
  CTG-3D luminescence at 96 h: 2.48
0.005 µM, days in culture: 127
  CTG-3D luminescence at 96 h: 1.94
0.005 µM, days in culture: 155
  CTG-3D luminescence at 96 h: 3.3
0.005 µM, days in culture: 168
  CTG-3D luminescence at 96 h: 2.66
0.1 µM, days in culture: 127
  CTG-3D luminescence at 96 h: 2.24
0.1 µM, days in culture: 155
  CTG-3D luminescence at 96 h: 3.82
0.1 µM, days in culture: 168
  CTG-3D luminescence at 96 h: 2.27
1 µM, days in culture: 127
  CTG-3D luminescence at 96 h: 1.85
1 µM, days in culture: 155
  CTG-3D luminescence at 96 h: 2.76
1 µM, days in culture: 168
  CTG-3D luminescence at 96 h: 2.64
10 µM, days in culture: 127
  CTG-3D luminescence at 96 h: 2.01
10 µM, days in culture: 155
  CTG-3D luminescence at 96 h: 2.89
10 µM, days in culture: 168
  CTG-3D luminescence at 96 h: 2.56
100 µM, days in culture: 127
  CTG-3D luminescence at 96 h: 0.0264
100 µM, days in culture: 155
  CTG-3D luminescence at 96 h: 0.0206
100 µM, days in culture: 168
  CTG-3D luminescence at 96 h: 0.0148
625 fM, days in culture: 127
  CTG-3D luminescence at 96 h: 2.17
625 fM, days in culture: 155
  CTG-3D luminescence at 96 h: 3.05
625 fM, days in culture: 168
  CTG-3D luminescence at 96 h: 3.57
